Results: patent US20150133512A1, “N-ARYLTRIAZOLE COMPOUNDS AS LPAR ANTAGONISTS” (Hoffmann-La Roche Inc,, priority 2012, published 2015)

Legend:
[1] = target: human recombinant LPA1 Lysophospholipid receptor (Homo sapiens, UniProt Q92633); assay: Calcium flux assay using FLIPR, LPA1 antagonist activity; format: cell-based; details: for IC50: ChemiScreen Calcium-optimized stable cell line, antagonist mode, inhibition of agonist-induced calcium flux
Description: (§1) Calcium Flux Assay Using Fluorometric Imaging Plate Reader (FLIPR)
Cell Culture Conditions: The ChemiScreen Calcium-optimized stable cell line containing the human recombinant LPA1 Lysophospholipid receptor was purchased from Chemicon International, Inc./Millipore. The cells were cultured in DMEM-high glucose supplemented with 10% fetal bovine serum, 2 mM glutamine, 100 U/mL penicillin/100 μg/mL streptomycin, 1× non-essential amino acids, 10 mM HEPES and 0.25 mg/mL Geneticin. Cells were harvested with trypsin-EDTA and counted using ViaCount reagent. The cell suspension volume was adjusted to 2.0×10^5 cells/mL with complete growth media. Aliquots of 50 μL were dispensed into 384 well black/clear tissue culture treated plates (BD) and the microplates were placed in a 37° C. incubator overnight. The following day plates were used in the assay.
(§2) Dye Loading and Assay: Loading Buffer (FLIPR Calcium-4, Molecular Devices) was prepared by dissolving the contents of one bottle into 100 mL Hank's Balanced Salt Solution containing 20 mM HEPES and 2.5 mM probenecid. Plates were loaded onto Biotek plate washer and growth media was removed and replaced with 20 μL of Hank's Balanced Salt Solution containing 20 mM HEPES and 2.5 mM probenecid, followed by 25 μL of Loading Buffer. The plates were then incubated for 30 minutes at 37° C.
During the incubation, test compounds were prepared by adding 90 μL of HBSS/20 mM HEPES/0.1% BSA buffer to 2 μL of serially diluted compounds. To prepare serial dilutions, 10 mM stocks of compounds were prepared in 100% DMSO.
After incubation, both the cell and “assay” plates were brought to the FLIPR and 20 μL of the diluted compounds were transferred to the cell plates by the FLIPR. Compound addition was monitored by FLIPR to detect any agonist activity of the compounds. Plates were then incubated for 30 minutes at room temperature protected from light. […] During the assay, fluorescence readings were taken simultaneously from all 384 wells of the cell plate every 1.5 seconds. Five readings were taken to establish a stable baseline, then 20 μL of sample was rapidly (30 μL/sec) and simultaneously added to each well of the cell plate. The fluorescence was continuously monitored before, during and after sample addition for a total elapsed time of 100 seconds. Responses (increase in peak fluorescence) in each well following agonist addition was determined. The initial fluorescence reading from each well, prior to ligand stimulation, was used as zero baseline value for the data from that well. The responses were expressed as % inhibition of the buffer control.

LPA3 = target: T1, LPA3 (Homo sapiens, UniProt Q9UBY5); assay: Calcium flux assay using FLIPR, LPA3 antagonist activity; format: cell-based; details: for IC50: antagonist activity
T1 sequence (Q9UBY5 1-353): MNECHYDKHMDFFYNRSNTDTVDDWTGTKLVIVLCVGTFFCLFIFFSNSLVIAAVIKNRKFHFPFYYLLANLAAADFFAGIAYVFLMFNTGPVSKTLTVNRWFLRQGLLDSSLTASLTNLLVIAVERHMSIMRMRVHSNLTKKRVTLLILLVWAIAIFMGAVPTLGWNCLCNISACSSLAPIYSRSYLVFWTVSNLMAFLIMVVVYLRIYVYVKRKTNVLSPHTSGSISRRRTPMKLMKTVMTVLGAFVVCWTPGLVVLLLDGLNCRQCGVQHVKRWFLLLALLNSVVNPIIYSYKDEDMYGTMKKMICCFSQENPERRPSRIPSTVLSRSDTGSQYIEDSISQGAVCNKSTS
Description: as §1, §2
During the incubation, test compounds were prepared by adding 90 μL of HBSS/20 mM HEPES/0.1% BSA buffer to 2 μL of serially diluted compounds. To prepare serial dilutions, 10 mM stocks of compounds were prepared in 100% DMSO. The compound dilution plate was set up as follows: well #1 received 29 μL of stock compound and 31 μL DMSO; wells 2-10 received 40 μL of DMSO; mixed and transferred 20 μL of solution from well #1 into well #2; continued with 1:3 serial dilutions out 10 steps; transferred 2 μL of diluted compound into duplicate wells of 384 well “assay plate” and then added the 90 μL of buffer.
After incubation, both the cell and “assay” plates were brought to the FLIPR and 20 μL of the diluted compounds were transferred to the cell plates by the FLIPR. Compound addition was monitored by FLIPR to detect any agonist activity of the compounds. Plates were then incubated for 30 minutes at room temperature protected from light. After the incubation, plates were returned to the FLIPR and 20 μL of 4.5× concentrated agonist was added to the cell plates. During the assay, fluorescence readings were taken simultaneously from all 384 wells of the cell plate every 1.5 seconds. Five readings were taken to establish a stable baseline, then 20 μL of sample was rapidly (30 μL/sec) and simultaneously added to each well of the cell plate. The fluorescence was continuously monitored before, during and after sample addition for a total elapsed time of 100 seconds. Responses (increase in peak fluorescence) in each well following agonist addition was determined. The initial fluorescence reading from each well, prior to ligand stimulation, was used as zero baseline value for the data from that well. The responses were expressed as % inhibition of the buffer control.

human recombinant LPA1 Lysophospholipid receptor, sequence (Q92633 whole entry): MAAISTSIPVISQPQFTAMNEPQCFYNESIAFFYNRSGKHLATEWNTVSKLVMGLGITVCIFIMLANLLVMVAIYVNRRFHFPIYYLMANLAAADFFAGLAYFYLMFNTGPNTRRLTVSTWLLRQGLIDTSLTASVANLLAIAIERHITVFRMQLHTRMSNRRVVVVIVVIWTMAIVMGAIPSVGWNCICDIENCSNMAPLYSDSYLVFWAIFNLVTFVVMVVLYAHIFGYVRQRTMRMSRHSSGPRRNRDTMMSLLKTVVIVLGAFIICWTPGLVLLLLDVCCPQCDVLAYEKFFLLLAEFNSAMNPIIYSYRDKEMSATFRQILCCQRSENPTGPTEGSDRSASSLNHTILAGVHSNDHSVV

| SMILES | IC50 [1] | IC50 (LPA3) | inhibition at 30 µM (LPA3) | inhibition at 30 µM [1] |
| --- | --- | --- | --- | --- |
| Cc1nnn(-c2ccc(-c3ccc(C4(C(=O)O)CC4)cc3)cc2)c1NC(=O)O[C@H](C)c1ccccc1 [Example 1, 1-{4′-[4-Methyl-5-((R)-1-phenyl-ethoxycarbonylamino)-[1,2,3]triazol-1-yl]-biphenyl-4-yl}-cyclopropanecarboxylic acid] | 0.025 µM | > 30 µM |  |  |
| CCc1nnn(-c2ccc(-c3ccc(CC(=O)O)cc3)cc2)c1NC(=O)O[C@H](C)c1cccc(C(F)(F)F)c1 [Example 20] | 21.2 µM | 14.3 µM | 72.5% | 58.3% |
| CC[C@@H](C)OC(=O)Nc1c(C)nnn1-c1ccc(-c2ccc(C3(C(=O)O)CC3)cc2)cc1 [Example 10, 1-{4′-[5-((R)-sec-Butoxycarbonylamino)-4-methyl-[1,2,3]triazol-1-yl]-biphenyl-4-yl}-cyclopropanecarboxylic acid] | 0.398 µM | > 30 µM |  |  |
| Cc1nnn(-c2ccc(-c3ccc(C4(C(=O)O)CC4)cc3)cc2)c1NC(=O)O[C@H](C)c1cccc(C(F)(F)F)c1 [Example 7, 1-(4′-{4-Methyl-5-[(R)-1-(3-trifluoromethyl-phenyl)-ethoxycarbonylamino]-[1,2,3]triazol-1-yl}-biphenyl-4-yl)-cyclopropanecarboxylic acid] | 0.174 µM | 6.86 µM |  |  |
| Cc1nnn(-c2ccc(-c3ccc(C4(C(=O)O)CC4)cc3)cc2)c1NC(=O)O[C@H](C)c1ccccc1C(F)(F)F [Example 6, 1-(4′-{4-Methyl-5-[(R)-1-(2-trifluoromethyl-phenyl)-ethoxycarbonylamino]-[1,2,3]triazol-1-yl}-biphenyl-4-yl)-cyclopropanecarboxylic acid] | 0.112 µM | 25.9 µM | 55.2% |  |
| Cc1c(NC(=O)O[C@H](C)c2ccccc2)nnn1-c1ccc(-c2ccc(C3(C(=O)O)CC3)cc2)cc1 [Example 3, 1-{4′-[5-Methyl-4-((R)-1-phenyl-ethoxycarbonylamino)-[1,2,3]triazol-1-yl]-biphenyl-4-yl}-cyclopropanecarboxylic acid] | > 30 µM | > 30 µM |  |  |
| Cc1nnn(-c2ccc(-c3ccc(C4(C(=O)O)CC4)cc3)cc2)c1NC(=O)OC(C)C [Example 11, 1-[4′-(5-iso-Propoxycarbonylamino-4-methyl-[1,2,3]triazol-1-yl)-biphenyl-4-yl]-cyclopropanecarboxylic acid] | > 30 µM | > 30 µM |  |  |
| Cc1nnn(-c2ccc(-c3ccc(CC(=O)O)cc3)cc2)c1NC(=O)O[C@H](C)c1ccccc1 [Example 2, {4′-[4-Methyl-5-((R)-1-phenyl-ethoxycarbonylamino)-[1,2,3]triazol-1-yl]-biphenyl-4-yl}-acetic acid] | > 30 µM | > 30 µM |  | 40% |

Continued, values first:

| IC50 [1] | IC50 (LPA3) | inhibition at 30 µM (LPA3) | inhibition at 30 µM [1] | SMILES |
| --- | --- | --- | --- | --- |
| 0.036 µM | > 30 µM | 22% |  | C[C@@H](OC(=O)Nc1cnnn1-c1ccc(-c2ccc(C3(C(=O)O)CC3)cc2)cc1)c1ccccc1 [Example 21, 1-{4′-[5-((R)-1-Phenyl-ethoxycarbonylamino)-[1,2,3]triazol-1-yl]-biphenyl-4-yl}-cyclopropanecarboxylic acid] |
| 0.796 µM | > 30 µM |  | 80.9% | Cc1nnn(-c2ccc(-c3ccc(C(C)(C)C(=O)O)cc3)cc2)c1NC(=O)O[C@H](C)c1ccccc1 [Example 23, 2-Methyl-2-{4′-[4-methyl-5-((R)-1-phenyl-ethoxycarbonylamino)-[1,2,3]triazol-1-yl]-biphenyl-4-yl}-propionic acid] |
| 4.53 µM | 5.74 µM |  |  | Cc1nnn(-c2ccc(-c3ccc(C4(C(=O)NS(C)(=O)=O)CC4)cc3)cc2)c1NC(=O)O[C@H](C)c1cccc(C(F)(F)F)c1 [Example 35, {3-[4′-(1-Methanesulfonylaminocarbonyl-cyclopropyl)-biphenyl-4-yl]-5-methyl-3H[1,2,3]triazol-4-yl}-carbamic acid (R)-1-(3-trifluoromethyl-phenyl)-ethyl ester] |
| > 30 µM | > 30 µM |  |  | Cc1nnn(-c2cccc(-c3ccc(CC(=O)O)cc3)c2)c1NC(=O)O[C@H](C)c1ccccc1 [Example 26, {3′-[4-Methyl-5-((R)-1-phenyl-ethoxycarbonylamino)-[1,2,3]triazol-1-yl]-biphenyl-4-yl}-acetic acid] |
| 0.088 µM | > 30 µM |  |  | C=CCC(C(=O)O)c1ccc(-c2ccc(-n3nnc(C)c3NC(=O)O[C@H](C)c3ccccc3)cc2)cc1 (stereo partly drawn) [Example 33, (R)-2-{4′-[4-Methyl-5-(-1-phenylethoxycarbonylamino)-[1,2,3]triazol-1-yl]-biphenyl-4-yl}-pent-4-enoic acid] |
| > 30 µM | > 30 µM |  |  | Cc1nnn(-c2ccc(-c3cccc(C4(C(=O)O)CC4)c3)cc2)c1NC(=O)O[C@H](C)c1ccccc1 [Example 24, (R)-1-(4′-(4-Methyl-5-((1-phenylethoxy)carbonylamino)-1H-1,2,3-triazol-1-yl)biphenyl-3-yl)cyclopropanecarboxylic acid] |
| > 30 µM | > 30 µM |  |  | Cc1nnn(-c2ccc(-c3ccccc3)cc2)c1NC(=O)O[C@H](C)c1ccccc1 [Example 27, (3-Biphenyl-4-yl-5-methyl-3H-[1,2,3]triazol-4-yl)-carbamic acid (R)-1-phenyl-ethyl ester] |
